36 compounds from US12428413B2 (CHDI Foundation, Inc., priority 2019, dated 2025) can be followed below.

Structures are written as SMILES.

The target of the first assay is human catalytic domain ROCK II protein (amino acids 5-554) with a N-terminal GST tag (Homo sapiens, UniProt O75116). In words: biochemical.
human catalytic domain ROCK II protein (amino acids 5-554) with a N-terminal GST tag, sequence (O75116 5-554): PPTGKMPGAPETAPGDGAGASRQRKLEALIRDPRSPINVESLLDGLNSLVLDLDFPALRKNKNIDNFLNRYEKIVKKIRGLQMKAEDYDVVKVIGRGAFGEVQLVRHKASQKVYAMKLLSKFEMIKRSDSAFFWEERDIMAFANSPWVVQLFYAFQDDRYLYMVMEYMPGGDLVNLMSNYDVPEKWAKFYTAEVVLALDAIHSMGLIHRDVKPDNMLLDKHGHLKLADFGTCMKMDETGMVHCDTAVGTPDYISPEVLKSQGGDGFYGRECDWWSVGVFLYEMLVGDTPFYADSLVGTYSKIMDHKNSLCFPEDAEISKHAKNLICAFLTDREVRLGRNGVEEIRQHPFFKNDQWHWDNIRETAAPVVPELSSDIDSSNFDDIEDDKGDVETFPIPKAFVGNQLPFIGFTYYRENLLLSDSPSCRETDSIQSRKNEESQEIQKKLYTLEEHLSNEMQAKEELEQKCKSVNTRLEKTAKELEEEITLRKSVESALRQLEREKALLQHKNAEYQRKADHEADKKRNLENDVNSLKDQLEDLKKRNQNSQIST
Settings: not given
Regarding `C[C@@H]1CN(c2ccnc(F)c2)CCN1C(=O)NCc1cccc2c1OC(F)(F)O2` [Example 5, (R)—N-((2,2-Difluorobenzo[d][1,3]dioxol-4-yl)methyl)-4-(2-fluoropyridin-4-yl)-2-methylpiperazine-1-carboxamide], the IC50 is 864 nM.

The next assay deals with cellular ROCK activity (cofilin phosphorylation at Ser3) in A7r5 rat smooth muscle cells. The assay can be described thus: Cellular ROCK activity: cofilin (Ser3) phosphorylation, In-Cell Western assay. The class given is cell-based. Particulars: Rattus norvegicus, A7R5, 1 h, 1 hour compound incubation, phospho-cofilin (Ser3), read-out: CELL_IC50. As for the experimental part:
The potency of Rho-associated protein kinase (ROCK) inhibitors was quantified by measuring cofilin phosphorylation levels at Serine 3 (Ser3) as a measure of cellular ROCK activity by In-Cell Western assay. […] The assay plate was imaged and quantified on the Odyssey imager (LICOR Biosciences).
ROCK inhibitor compound plate preparation. […] Stock compounds and control are added directly to ECHO plate (Labcyte) by Janus.
A7r5 cell culture and plating. A7r5 cells were cultured according to standard cell culture protocols in A7r5 growth media (DMEM with Glutamax and 10% FBS). […] 45 μl of re-suspended A7r5 cells were plated at 3000 cells/well in a sterile, μclear, black, F-bottom, 384-well microplate (Greiner bio-one). Seeded cells allowed to settle in wells on the bench for 1 hour before incubation at 37° C., 5% CO2 overnight.
Assay reagent and antibody preparations. Wash buffer was prepared by addition of Tween-20 to Dulbecco's Phosphate Buffered Saline (DPBS) (1×) without calcium and magnesium to make 1% Tween-20 as final concentration. Blocking buffer was prepared by addition of TritonX-100 to SeaBlock buffer (ThermoFisher) to make 0.3% TritonX-100 as final concentration. […] Secondary antibody mix was prepared by diluting donkey anti-rabbit 800CW antibody (LICOR Biosciences) 1:1000 in SeaBlock buffer.
Assay procedure. Compound plate was diluted by addition of 19 μl/well compound dilution buffer (DMEM with Glutamax) using 125 μl 16-channel Matrix electronic pipette. 5 μl diluted compound was stamped from compound plate to assay plate containing A7r5 cells using Bravo (384-well head from Agilent) liquid handler and incubated at 37° C., 5% CO2 for 1 hour. Cells were fixed by addition of 5 μl 37% formaldehyde using 125 μl 16-channel Matrix electronic pipette and incubation for 20 min at room temperature. The assay plate was washed 5× with 60 μl/well wash buffer. […] Next, the assay plate was sealed, centrifuged at 1000 rpm for 5 seconds and incubated at 4° C. overnight on an orbital shaker at 300 rpm. […] The assay plate was centrifuged at 1000 rpm for 5 seconds and incubated on an orbital shaker at 300 rpm for 60 min at room temperature. Finally, assay plate was washed and wells left empty before measurement of 700 nm and 800 nm fluorescence intensities on Odyssey imager set at 4.0 mm focus offset.
As for `C[C@@H]1CN(c2ccncc2F)CCN1C(=O)N[C@H](C)c1cccc2nccn12` [Example 58, (R)-4-(3-fluoropyridin-4-yl)-N—((R)-1-(imidazo[1,2-a]pyridin-5-yl)ethyl)-2-methylpiperazine-1-carboxamide], the IC50 turned out to be 17.6 nM.
The same measure, in the same setting: for `COc1cccc([C@@H](C)NC(=O)N2CCN(c3ccnc(F)c3)[C@@H](C)C2)c1` [Example 117] the value was 107 nM.
As for `C[C@@H]1CN(c2c(F)cncc2F)CCN1C(=O)N[C@H](C)c1cccc2c1CCO2` [Example 156], the IC50 stood at 4.9 nM.
For the compound `C[C@@H]1CN(c2ccncc2F)CCN1C(=O)NCc1cccc2c1cnn2C` [Example 79, (R)-4-(3-Fluoropyridin-4-yl)-2-methyl-N-((1-methyl-1H-indazol-4-yl)methyl)piperazine-1-carboxamide], the IC50 came to 2010 nM.
As to `COc1cc(F)cc([C@@H](C)NC(=O)N2CCN(c3ccncc3F)CC2)c1` [Example 128], the IC50 was 163 nM.
With `C[C@@H]1CN(c2ccncc2F)CCN1C(=O)NCc1cccc2occc12` [Example 76, (R)—N-(Benzofuran-4-ylmethyl)-4-(3-fluoropyridin-4-yl)-2-methylpiperazine-1-carboxamide], the IC50 was determined as 86.1 nM.
On the same count and under the same terms, for `C[C@@H](NC(=O)N1CCN(c2ccnc(F)c2)CC1)c1cccc2c1CCO2` [Example 102] the value was 198 nM; for `C[C@H]1CN(C(=O)NCc2cccc(OC(F)F)c2)CCN1c1ccncc1F` [Example 149], 2740 nM; for `COc1ccc(Cl)c([C@@H](C)NC(=O)N2CCN(c3ccncc3F)C[C@H]2C)c1` [Example 49, (R)—N—((R)-1-(2-Chloro-5-methoxyphenyl)ethyl)-4-(3-fluoropyridin-4-yl)-2-methylpiperazine-1-carboxamide], 164 nM.
On to `C[C@@H]1CN(c2ccncc2F)CCN1C(=O)N[C@H](C)c1ccccc1Br` [Example 45, (R)—N—((R)-1-(2-Bromophenyl)ethyl)-4-(3-fluoropyridin-4-yl)-2-methylpiperazine-1-carboxamide], for which the IC50 was found to be 125 nM.
For the compound `O=C(NCc1cccc2occc12)N1CCN(c2ccncc2F)CC1` [Example 38, N-(Benzofuran-4-ylmethyl)-4-(3-fluoropyridin-4-yl)piperazine-1-carboxamide], the IC50 was determined as 761 nM.
Turning to `C[C@@H](NC(=O)N1CCN(c2ccncc2F)CC1)c1cccc2ccn(C)c12` [Example 32, (R)-4-(3-fluoropyridin-4-yl)-N-(1-(1-methyl-1H-indol-7-yl)ethyl)piperazine-1-carboxamide], the IC50 turned out to be 410 nM.
For `Cc1cnc2cccc([C@H](C)NC(=O)N3CCN(c4ccnc(F)c4)C[C@H]3C)n12` [Example 10, (R)-4-(2-Fluoropyridin-4-yl)-2-methyl-N—((S)-1-(3-methylimidazo[1,2-a]pyridin-5-yl)ethyl)piperazine-1-carboxamide], the IC50 was ≥ 5000 nM.
Same read-out and setting: for `C[C@@H]1CN(c2ccncc2F)CCN1C(=O)N[C@H](C)c1cccc2ccn(C)c12` [Example 63, (R)-4-(3-Fluoropyridin-4-yl)-2-methyl-N—((R)-1-(1-methyl-1H-indol-7-yl)ethyl)piperazine-1-carboxamide] the value was 44.2 nM; for `C[C@@H]1CN(c2ccnc(F)c2)CCN1C(=O)N[C@H](C)c1ccccc1Cl` [Example 109], 1090 nM.
`COc1cc(F)cc([C@@H](C)NC(=O)N2CCN(c3ccncc3F)C[C@H]2C)c1` [Example 51, (R)—N—((R)-1-(3-Fluoro-5-methoxyphenyl)ethyl)-4-(3-fluoropyridin-4-yl)-2-methylpiperazine-1-carboxamide]: the IC50 amounted to 15.2 nM.
Take `COc1cccc([C@@H](C)NC(=O)N2CCN(c3ccncc3F)C[C@H]2C)c1Cl` [Example 135]: the IC50 was 1040 nM.
Consider `C[C@@H]1CN(c2ccncc2F)CCN1C(=O)N[C@H](C)c1cccnc1` [Example 52, (R)-4-(3-Fluoropyridin-4-yl)-2-methyl-N—((R)-1-(pyridin-3-yl)ethyl)piperazine-1-carboxamide], for which the IC50 came to 234 nM.
On to `C[C@@H]1CN(c2ccncc2F)CCN1C(=O)N[C@H](C)c1cccc(F)c1Cl` [Example 47, (R)—N—((R)-1-(2-Chloro-3-fluorophenyl)ethyl)-4-(3-fluoropyridin-4-yl)-2-methylpiperazine-1-carboxamide], for which the IC50 was found to be 131 nM.
The same measure, in the same setting: in the case of `C[C@@H]1CN(c2ccncc2F)CCN1C(=O)N[C@H](C)c1ccccc1Cl` [Example 42, (R)—N—((R)-1-(2-Chlorophenyl)ethyl)-4-(3-fluoropyridin-4-yl)-2-methylpiperazine-1-carboxamide] it was 73 nM; in that of `C[C@@H](NC(=O)N1CCN(c2ccnc(F)c2)CC1)c1cccc2occc12` [Example 104], 830 nM.
For the compound `C[C@@H](NC(=O)N1CCN(c2ccncc2F)[C@@H](C)C1)c1cccc2occc12` [Example 148], the IC50 was 71.6 nM.
Take `COc1cccc([C@@H](C)NC(=O)N2CCN(c3ccnc(F)c3)CC2)c1` [Example 101]: the IC50 is 871 nM.
In the case of `C[C@H](NC(=O)N1CCN(c2ccncc2F)C[C@H]1C)c1cccc(F)c1Cl` [Example 48, (R)—N—((S)-1-(2-chloro-3-fluorophenyl)ethyl)-4-(3-fluoropyridin-4-yl)-2-methylpiperazine-1-carboxamide], the IC50 was 279 nM.
Turning to `Cc1cc2c([C@@H](C)NC(=O)N3CCN(c4ccnc(F)c4)C[C@H]3C)cccc2o1` [Example 4, (R)-4-(2-Fluoropyridin-4-yl)-2-methyl-N—((R)-1-(2-methylbenzofuran-4-yl)ethyl)piperazine-1-carboxamide], the IC50 was determined as 356 nM.
In the case of `Cc1cc2c([C@@H](C)NC(=O)N3CCN(c4ccncc4F)C[C@H]3C)cccc2o1` [Example 60, (R)-4-(3-Fluoropyridin-4-yl)-2-methyl-N—((R)-1-(2-methylbenzofuran-4-yl)ethyl)piperazine-1-carboxamide], the IC50 came out at 33.1 nM.
The same measure, in the same setting: in the case of `C[C@@H]1CN(c2ccncc2F)CCN1C(=O)NCc1cccc2c1OCO2` [Example 75, (R)—N-(Benzo[d][1,3]dioxol-4-ylmethyl)-4-(3-fluoropyridin-4-yl)-2-methylpiperazine-1-carboxamide] it was 150 nM; in that of `COc1cccc([C@H](C)NC(=O)N2CCN(c3ccncc3F)C[C@H]2C)c1Cl` [Example 140], 2620 nM.
As for `C[C@@H](NC(=O)N1CCN(c2ccncc2F)CC1)c1ccc(F)cc1Cl` [Example 21, (R)—N-(1-(2-Chloro-4-fluorophenyl)ethyl)-4-(3-fluoropyridin-4-yl)piperazine-1-carboxamide], the IC50 turned out to be 1780 nM.
With `C[C@@H]1CN(c2ccnc(F)c2)CCN1C(=O)N[C@H](C)c1cccc(OC(F)F)c1` [Example 108], the IC50 was 638 nM.
Still for that read-out and setting: in the case of `C[C@@H]1CN(c2ccncc2F)CCN1C(=O)NCc1cccc2ncccc12` [Example 80, (R)-4-(3-Fluoropyridin-4-yl)-2-methyl-N-(quinolin-5-ylmethyl)piperazine-1-carboxamide] it was 75.5 nM; in that of `CC[C@@H]1CN(c2ccncc2F)CCN1C(=O)N[C@H](C)c1cccc(OC)c1` [Example 83, (R)-2-Ethyl-4-(3-fluoropyridin-4-yl)-N—((R)-1-(3-methoxyphenyl)ethyl)piperazine-1-carboxamide], 31.4 nM; in that of `C[C@@H](NC(=O)N1CCN(c2ccncc2F)CC1)c1ccccc1Br` [Example 19, (R)—N-(1-(2-Bromophenyl)ethyl)-4-(3-fluoropyridin-4-yl)piperazine-1-carboxamide], 1470 nM.
As for `Cc1nc2c([C@@H](C)NC(=O)N3CCN(c4ccncc4F)C[C@H]3C)cccc2o1` [Example 69, (R)-4-(3-Fluoropyridin-4-yl)-2-methyl-N—((R)-1-(2-methylbenzo[d]oxazol-4-yl)ethyl)piperazine-1-carboxamide], the IC50 worked out at 104 nM.
The same measure, in the same setting: in the case of `Cc1nc2c([C@H](C)NC(=O)N3CCN(c4ccncc4F)C[C@H]3C)cccc2o1` [Example 70, (R)-4-(3-Fluoropyridin-4-yl)-2-methyl-N—((S)-1-(2-methylbenzo[d]oxazol-4-yl)ethyl)piperazine-1-carboxamide] it was 3000 nM.
